Values after ≈ are worked out from the molar mass of the structure shown. Where two headings read alike, the source gives them in different places.
What was measured:
[1] = tested on: Mycobacterium avium 330/88; assay: In vitro antimycobacterial MIC, M. avium; assay type: cell-based
[2] = tested on: Mycobacterium tuberculosis 331/88 (H37Rv); assay: In vitro antimycobacterial MIC, M. tuberculosis; assay type: cell-based
[3] = tested on: Lichtheimia corymbifera 272; assay: Antifungal microdilution broth MIC, L. corymbifera; assay type: cell-based; conditions: Lichtheimia corymbifera, 272; 48 h incubation; read-out: MIC LC 48 h
Candida krusei E28 = assay: Antifungal microdilution broth MIC, C. krusei; assay type: cell-based; conditions: Pichia kudriavzevii
[4] = tested on: Enterococcus faecalis J 14365/08; assay: Antibacterial microdilution broth MIC, E. faecalis; assay type: cell-based; conditions: Enterococcus faecalis, J14365/08; 48 h incubation; read-out: MIC EF 48 h
[5] = tested on: Staphylococcus aureus CCM 4516/08; assay: Antibacterial microdilution broth MIC, S. aureus; assay type: cell-based; conditions: Staphylococcus aureus
Candida glabrata 20/I = assay: Antifungal microdilution broth MIC, C. glabrata; assay type: cell-based; conditions: Nakaseomyces glabratus, 48 h incubation, read-out: MIC CG 48 h
M. kansasii 6509/96 = assay: In vitro antimycobacterial MIC, M. kansasii clinical isolate; assay type: cell-based; conditions: Mycobacterium kansasii
Trichosporon asahii 1188 = assay: Antifungal microdilution broth MIC, T. asahii; assay type: cell-based
[6] = tested on: Aspergillus fumigatus 231; assay: Antifungal microdilution broth MIC, A. fumigatus; assay type: cell-based
[7] = tested on: Trichophyton interdigitale 445; assay: Antifungal microdilution broth MIC, T. interdigitale; assay type: cell-based
[8] = tested on: Staphylococcus epidermidis H 6966/08; assay: Antibacterial microdilution broth MIC, S. epidermidis; assay type: cell-based; conditions: Staphylococcus epidermidis, H6966/08
[9] = tested on: Mycobacterium kansasii 235/80; assay: In vitro antimycobacterial MIC, M. kansasii 235/80; assay type: cell-based
[10] = tested on: yeasts (Candida sp., T. asahii); assay: Antifungal activity against yeasts; assay type: cell-based; conditions: read-out: MIC for yeasts
Candida tropicalis 156 = assay: Antifungal microdilution broth MIC, C. tropicalis; assay type: cell-based
[11] = tested on: Klebsiella pneumoniae D 11750/08
[12] = tested on: Escherichia coli CCM 4517; assay: Antibacterial microdilution broth MIC, E. coli; assay type: cell-based; conditions: Escherichia coli, CCM4517; 48 h incubation; read-out: MIC EC 48 h
[13] = tested on: Candida albicans ATCC 44859; assay: Antifungal microdilution broth MIC, C. albicans; assay type: cell-based
[14] = tested on: Pseudomonas aeruginosa CCM 1961; assay: Antibacterial microdilution broth MIC, P. aeruginosa; assay type: cell-based; conditions: Pseudomonas aeruginosa, CCM1961; 48 h incubation; read-out: MIC PA 48 h
[15] = tested on: ESBL-positive Klebsiella pneumoniae J 14368/08
[16] = 330/88, 336 h, 14 d incubation, read-out: MIC M. avium 330/88 14 d
[17] = 330/88, 504 h, 21 d incubation, read-out: MIC M. avium 330/88 21 d
[18] = 336 h, 14 d incubation, read-out: MIC Mtb. 331/88 14 d
[19] = 504 h, 21 d incubation, read-out: MIC Mtb. 331/88 21 d
[20] = 6509/96, 168 h, 7 d incubation, read-out: MIC M. kansasii 6509/96 7 d
[21] = 6509/96, 336 h, 14 d incubation, read-out: MIC M. kansasii 6509/96 14 d
[22] = 6509/96, 504 h, 21 d incubation, read-out: MIC M. kansasii 6509/96 21 d
[23] = 48 h incubation, read-out: MIC SE 48 h
[24] = 235/80, 168 h, 7 d incubation, read-out: MIC M. kansasii 235/80 7 d
[25] = 235/80, 336 h, 14 d incubation, read-out: MIC M. kansasii 235/80 14 d
[26] = 235/80, 504 h, 21 d incubation, read-out: MIC M. kansasii 235/80 21 d

O=S(=O)(Nc1ncccn1)c1ccc(N=Cc2cc(O)ccc2O)cc1 [Compound 2i, 4-[(2,5-Dihydroxybenzylidene)amino]-N-(pyrimidin-2-yl)benzenesulfonamide]
MIC [1, 16]: 500 µM (≈ 185 µg/mL) | MIC [1, 17]: 1000 µM (≈ 370 µg/mL) | MIC [2, 18]: 125 µM (≈ 46.3 µg/mL) | MIC [2, 19]: 125 µM (≈ 46.3 µg/mL) | MIC [3]: 500 µM (≈ 185 µg/mL) | MIC (Candida krusei E28; E28, 48 h incubation, read-out: MIC CK 48 h): 31.2 µM (≈ 11.6 µg/mL) | MIC [4]: 250 µM (≈ 92.6 µg/mL) | MIC ([5]; CCM 4516 / MRSA, S. aureus incl. MRSA, incubation time not given, read-out: MIC for S. aureus): 31.2 µM (≈ 11.6 µg/mL) | MIC ([5]; CCM4516, 48 h incubation, read-out: MIC SA 48 h): 31.2 µM (≈ 11.6 µg/mL) | MIC (Candida glabrata 20/I): 15.6 µM (≈ 5.79 µg/mL) | MIC (M. kansasii 6509/96; [20]): 62.5 µM (≈ 23.1 µg/mL) | MIC (M. kansasii 6509/96; [21]): 125 µM (≈ 46.3 µg/mL) | MIC (M. kansasii 6509/96; [22]): 125 µM (≈ 46.3 µg/mL) | MIC (Trichosporon asahii 1188; Trichosporon asahii, 1188, 48 h incubation, read-out: MIC TA 48 h): 15.6 µM (≈ 5.79 µg/mL) | MIC ([6]; Aspergillus fumigatus, 231, 24 h, read-out: MIC AF 24 h): 125 µM (≈ 46.3 µg/mL) | MIC ([6]; Aspergillus fumigatus, 231, 48 h, read-out: MIC AF 48 h): 125 µM (≈ 46.3 µg/mL) | MIC ([7]; Trichophyton interdigitale, 445, 72 h incubation, read-out: MIC TI 72 h): 1.95 µM (≈ 0.722 µg/mL) | MIC ([7]; Trichophyton interdigitale, 445, 120 h incubation, read-out: MIC TI 120 h): 1.95 µM (≈ 0.722 µg/mL) | MIC [8, 23]: 15.6 µM (≈ 5.79 µg/mL) | MIC ([8]; incubation time not given, read-out: MIC for S. epidermidis): 15.6 µM (≈ 5.79 µg/mL) | MIC [9, 24]: 62.5 µM (≈ 23.1 µg/mL) | MIC [9, 25]: 125 µM (≈ 46.3 µg/mL) | MIC [9, 26]: 125 µM (≈ 46.3 µg/mL) | MIC ([10]; range over Candida sp. and T. asahii): 15.6 to 31.2 µM (≈ 5.79 to 11.6 µg/mL) | MIC (Candida tropicalis 156; Candida tropicalis, 156, 48 h incubation, read-out: MIC CT 48 h): 15.6 µM (≈ 5.79 µg/mL) | MIC KP 24 h [11]: >500 µM | MIC KP 48 h [11]: >500 µM | MIC [12]: 500 µM (≈ 185 µg/mL) | MIC ([13]; ATCC44859, 48 h incubation, read-out: MIC CA 48 h): 15.6 µM (≈ 5.79 µg/mL) | MIC [14]: 500 µM (≈ 185 µg/mL) | MIC KP-E 24 h [15]: >500 µM | MIC KP-E 48 h [15]: >500 µM

O=S(=O)(Nc1ncccn1)c1ccc(N=Cc2cc(Cl)cc(Cl)c2O)cc1 [Compound 2m, 4-[(3,5-Dichloro-2-hydroxybenzylidene)amino]-N-(pyrimidin-2-yl)benzenesulfonamide]
MIC [1, 16]: 250 µM (≈ 106 µg/mL) | MIC [1, 17]: 500 µM (≈ 212 µg/mL) | MIC [2, 18]: 125 µM (≈ 52.9 µg/mL) | MIC [2, 19]: 125 µM (≈ 52.9 µg/mL) | MIC [3]: 500 µM (≈ 212 µg/mL) | MIC (Candida krusei E28; E28, 24 h, read-out: MIC CK 24 h): 62.5 µM (≈ 26.5 µg/mL) | MIC (Candida krusei E28; E28, 48 h, read-out: MIC CK 48 h): 62.5 µM (≈ 26.5 µg/mL) | MIC [4]: > 500 µM | MIC ([5]; CCM4516, 24 h, read-out: MIC SA 24 h): 62.5 µM (≈ 26.5 µg/mL) | MIC ([5]; CCM4516, 48 h, read-out: MIC SA 48 h): 62.5 µM (≈ 26.5 µg/mL) | MIC (Candida glabrata 20/I): 31.2 µM (≈ 13.2 µg/mL) | MIC (M. kansasii 6509/96; [20]): 62.5 µM (≈ 26.5 µg/mL) | MIC (M. kansasii 6509/96; [21]): 125 µM (≈ 52.9 µg/mL) | MIC (M. kansasii 6509/96; [22]): 250 µM (≈ 106 µg/mL) | MIC (Trichosporon asahii 1188; Trichosporon asahii, 1188, 24 h, read-out: MIC TA 24 h): 62.5 µM (≈ 26.5 µg/mL) | MIC (Trichosporon asahii 1188; Trichosporon asahii, 1188, 48 h, read-out: MIC TA 48 h): 62.5 µM (≈ 26.5 µg/mL) | MIC ([6]; Aspergillus fumigatus, 231, 48 h incubation, read-out: MIC AF 48 h): 250 µM (≈ 106 µg/mL) | MIC ([7]; Trichophyton interdigitale, 445, 72 h, read-out: MIC TI 72 h): 125 µM (≈ 52.9 µg/mL) | MIC ([7]; Trichophyton interdigitale, 445, 120 h, read-out: MIC TI 120 h): 125 µM (≈ 52.9 µg/mL) | MIC [8, 23]: 31.2 µM (≈ 13.2 µg/mL) | MIC [9, 24]: 125 µM (≈ 52.9 µg/mL) | MIC [9, 25]: 250 µM (≈ 106 µg/mL) | MIC [9, 26]: 500 µM (≈ 212 µg/mL) | MIC [10]: 31.2 to 125 µM (≈ 13.2 to 52.9 µg/mL) | MIC (Candida tropicalis 156; Candida tropicalis, 156, 24 h, read-out: MIC CT 24 h): 125 µM (≈ 52.9 µg/mL) | MIC (Candida tropicalis 156; Candida tropicalis, 156, 48 h, read-out: MIC CT 48 h): 125 µM (≈ 52.9 µg/mL) | MIC KP 24 h [11]: >500 µM | MIC KP 48 h [11]: >500 µM | MIC [12]: > 500 µM | MIC ([13]; ATCC44859, 24 h, read-out: MIC CA 24 h): 62.5 µM (≈ 26.5 µg/mL) | MIC ([13]; ATCC44859, 48 h, read-out: MIC CA 48 h): 62.5 µM (≈ 26.5 µg/mL) | MIC [14]: > 500 µM | MIC KP-E 24 h [15]: 500 µM (≈ 212 µg/mL) | MIC KP-E 48 h [15]: 500 µM (≈ 212 µg/mL)

Source: article PMC6151383 (Molecules : A Journal of Synthetic Chemistry and Natural …, 2017)
